System: TNFα released by PBMCs stimulated by LPS
Test: Inhibition of the release of TNFα in peripheral blood mononuclear cells (PBMCs) stimulated by lipopolysaccharide (LPS), ELISA
Type: cell-based, human
Settings: LPS 0.1 μg/mL, 20 hours incubation; for Inhibition Degree: compound concentration 3.0 μM; for EC50: concentration giving 50% TNFα inhibition
Protocol: Pharmacological Research: Effects on the releasing of TNFα in peripheral blood mononuclear cells (PBMCs) stimulated by lipopolysaccharide (LPS).
Cytokine TNFα released by PBMCs in the peripheral blood stimulated by lipid polysaccharide (LPS) in vitro was studied.
PBMCs were collected from blood of at least three volunteers pretreated with heparin by a gradient separation method, and washed three times with a 1640 culture medium (10% calf serum, 2 mM L-glutamine, […] mercaptoethanol, 50 μg/mL streptomycin, and 50 U/mL penicillin). The obtained PBMCs were then placed into a 24-well cell culture plate and the concentration was adjusted to 1×10^6 cells/mL with 1640 culture medium. The compounds to be tested were dissolved in dimethylsulfoxide to obtain a solution having a required concentration. The solution was added to the above-mentioned cell culture medium and cultured in an incubator (5% CO2, 90% humidity) for 1 hour. Then, LPS (Sigma) was added until the concentration reached 0.1 μg/mL (except for the control).
After 20 hours incubation, the content of TNFα in the supernatant of the PBMC culture medium was assayed by ELISA kit (America Genzyme Co) using standard method. The TNFα inhibition rate was calculated by measured value of the control well (not treated) and the measured value of the test wells (treated with the test compound). The concentration of compounds giving a 50% TNFα inhibition (IC50 value) was calculated using nonlinear regression analysis. Each concentration was determined twice and an average value was practicable.

Compound	Inhibition Degree [%]	other results
O=C1CCC(N2Cc3cscc3C2=O)C(=O)N1 (stereo not shown) [Example 9, 3-(4-oxo-4H-thiophene[3,4-c]pyrrol-5(6H)-yl)piperidine-2,6-dione]	32	
CN1C(=O)CCC(N2Cc3cscc3C2=O)C1=O (stereo not shown) [Example 10, 1-methyl-3-(4-oxo-4H-thiophene[3,4-c]pyrrol-5(6H)-yl)piperidine-2,6-dione]	28	
CCCN1C(=O)CCC(N2Cc3cscc3C2=O)C1=O (stereo not shown) [Example 11, 3-(4-oxo-4H-thiophene[3,4-c]pyrrol-5(6H)-yl)-1-propylpiperidine-2,6-dione]	22	
CC1(N2Cc3cscc3C2=O)CCC(=O)NC1=O (stereo not shown) [Example 16, 3-methyl-3-(4-oxo-4H-thiophene[3,4-c]pyrrole-5(6H)-yl)piperidine-2,6-dione]	38	
O=C1CCC(N2Cc3c(csc3[N+](=O)[O-])C2=O)C(=O)N1 (stereo not shown) [Example 17, 3-(1-nitro-4-oxo-4H-thiophene[3,4-c]pyrrole-5(6H)-yl)piperidine-2,6-dione]	19	
Nc1scc2c1CN(C1CCC(=O)NC1=O)C2=O (stereo not shown) [Example 18, 3-(1-amino-4-oxo-4H-thiophene[3,4-c]pyrrole-5(6H)-yl)piperidine-2,6-dione]	94	EC50: 60 nM
CC1(N2Cc3c(csc3N)C2=O)CCC(=O)NC1=O (stereo not shown) [Example 20, 3-methyl-3-(1-amino-4-oxo-4H-thiophene[3,4-c]pyrrole-5(6H)-yl)piperidine-2,6-dione]	76	EC50: 180 nM
O=C1CCC(N2Cc3ccsc3C2=O)C(=O)N1 (stereo not shown) [Example 33, 3-(6-oxo-4H-thiophene[3,2-c]pyrrole-5(6H)-yl)piperidine-2,6-dione]	47	
O=C1CCC(N2C(=O)c3cscc3C2=O)CN1 (stereo not shown) [Example 34, 5-(6-oxo-piperidine-3-yl)-5H-thiophene[3,4-c]pyrrole-4,6-dione]	18	
O=C1CCC(N2C(=O)c3ccccc3C2=O)C(=O)N1 (stereo not shown) [Thalidomide, reference compound]		inhibition at 100 µM (Homo sapiens, PBMC, compound concentration 100 μM, read-out: Inhibition Degree): 22%; EC50 (Homo sapiens, PBMC): 183000 nM
